Patent US20100267561A1, “HERBICIDAL PYRIDAZINONE DERIVATIVES” (priority 2007, published 2010)

Experiments:
Experiment in all cases: Test B pre-/postemergence plant response
Assay type in all cases: in vivo
Details in all cases: Preemergence
[1] = tested on: woolly cupgrass (Eriochloa villosa)
In short: (§1)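 Visual scoring from 0 (no effect) to 100 (complete control) against untreated controls was done 13 to 15 days after greenhouse treatment. Chemicals were formulated in a surfactant-containing non-phytotoxic solvent and applied to soil preemergence or to 1- to 4-leaf (2-18 cm) plants postemergence.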

[2] = tested on: johnsongrass (Sorghum halepense)
In short: as §1

[3] = tested on: eastern black (E.B.) nightshade (Solanum ptycanthum)
In short: as §1

[4] = tested on: Russian thistle (Salsola iberica)
In short: as §1

[5] = tested on: kochia (Kochia scoparia)
In short: as §1

[6] = tested on: blackgrass (Alopecurus myosuroides)
In short: as §1

[7] = tested on: lambsquarters (Chenopodium album)
In short: as §1

[8] = tested on: giant foxtail (Setaria faberii)
In short: as §1

[9] = tested on: soybean (Glycine max)
In short: as §1

[10] = tested on: catchweed bedstraw (Galium aparine)
In short: as §1

[11] = tested on: goosegrass (Eleusine indica)
In short: as §1

[12] = tested on: pigweed (Amaranthus retroflexus)
In short: as §1

[13] = tested on: common ragweed (Ambrosia elation)
In short: as §1

[14] = tested on: Italian ryegrass (Lolium multiflorum)
In short: as §1

[15] = 16 g ai/ha, scale 0 to 100 (0 no effect, 100 complete control)
[16] = 31 g ai/ha, 0 to 100 scale, 0 no effect, 100 complete control

Structure (SMILES): Cc1cn(-c2ccc(Cl)cc2)nc1-c1c(O)cnn(C)c1=O [Compound 30, 4-[1-(4-chlorophenyl)-4-methyl-1H-pyrazol-3-yl]-5-hydroxy-2-methyl-3(2H)-pyridazinone]
- pest or weed control at 16 g/ha ([1]; Eriochloa villosa, pre-emergence, 16 g ai/ha, scale 0 to 100 (0 no effect, 100 complete control), read-out: Plant response rating, Cupgrass, Woolly): 75%
- pest or weed control at 31 g/ha ([1]; Eriochloa villosa, pre-emergence, 31 g ai/ha, 0 to 100 scale, 0 no effect, 100 complete control, read-out: Plant response rating, Cupgrass, Woolly): 98%
- pest or weed control at 62 g/ha ([1]; Eriochloa villosa, pre-emergence, 62 g ai/ha, scale 0 to 100, read-out: Plant response rating, Cupgrass, Woolly): 100%
- Cupgrass, Woolly plant response rating ([1]; 8 g ai/ha, scale 0 to 100): 50
- Johnsongrass plant response rating ([2]; 8 g ai/ha, scale 0 to 100): 0
- pest or weed control at 16 g/ha ([2]; Sorghum halepense, pre-emergence, 16 g ai/ha, scale 0 to 100 (0 no effect, 100 complete control), read-out: Plant response rating, Johnsongrass): 50%
- pest or weed control at 31 g/ha ([2]; Sorghum halepense, pre-emergence, 31 g ai/ha, 0 to 100 scale, 0 no effect, 100 complete control, read-out: Plant response rating, Johnsongrass): 50%
- pest or weed control at 62 g/ha ([2]; Sorghum halepense, pre-emergence, 62 g ai/ha, scale 0 to 100, read-out: Plant response rating, Johnsongrass): 98%
- Nightshade, E. B. plant response rating ([3]; 8 g ai/ha, scale 0 to 100): 0
- pest or weed control at 16 g/ha ([3]; Solanum, pre-emergence, 16 g ai/ha, scale 0 to 100 (0 no effect, 100 complete control), read-out: Plant response rating, Nightshade, E. B.): 0%
- pest or weed control at 31 g/ha ([3]; Solanum, pre-emergence, 31 g ai/ha, 0 to 100 scale, 0 no effect, 100 complete control, read-out: Plant response rating, Nightshade, E. B.): 0%
- pest or weed control at 62 g/ha ([3]; Solanum, pre-emergence, 62 g ai/ha, scale 0 to 100, read-out: Plant response rating, Nightshade, E. B.): 0%
- Plant response rating, Russian Thistle [4, 15]: 0
- Plant response rating, Russian Thistle [4, 16]: 0
- Plant response rating, Russian Thistle ([4]; 62 g ai/ha, scale 0 to 100): 0
- Russian Thistle plant response rating ([4]; 8 g ai/ha, scale 0 to 100): 0
- Plant response rating, Kochia [5, 15]: 0
- Plant response rating, Kochia [5, 16]: 0
- Plant response rating, Kochia ([5]; 62 g ai/ha, scale 0 to 100): 0
- Kochia plant response rating ([5]; 8 g ai/ha, scale 0 to 100): 0
- pest or weed control at 16 g/ha ([6]; Alopecurus myosuroides, pre-emergence, 16 g ai/ha, scale 0 to 100 (0 no effect, 100 complete control), read-out: Plant response rating, Blackgrass): 60%
- pest or weed control at 31 g/ha ([6]; Alopecurus myosuroides, pre-emergence, 31 g ai/ha, 0 to 100 scale, 0 no effect, 100 complete control, read-out: Plant response rating, Blackgrass): 100%
- pest or weed control at 62 g/ha ([6]; Alopecurus myosuroides, pre-emergence, 62 g ai/ha, scale 0 to 100, read-out: Plant response rating, Blackgrass): 100%
- Blackgrass plant response rating ([6]; 8 g ai/ha, scale 0 to 100): 0
- pest or weed control at 16 g/ha ([7]; Chenopodium album, pre-emergence, 16 g ai/ha, scale 0 to 100 (0 no effect, 100 complete control), read-out: Plant response rating, Lambsquarters): 0%
- pest or weed control at 31 g/ha ([7]; Chenopodium album, pre-emergence, 31 g ai/ha, 0 to 100 scale, 0 no effect, 100 complete control, read-out: Plant response rating, Lambsquarters): 0%
- pest or weed control at 62 g/ha ([7]; Chenopodium album, pre-emergence, 62 g ai/ha, scale 0 to 100, read-out: Plant response rating, Lambsquarters): 0%
- Lambsquarters plant response rating ([7]; 8 g ai/ha, scale 0 to 100): 0
- Foxtail, Giant plant response rating ([8]; 8 g ai/ha, scale 0 to 100): 60
- pest or weed control at 16 g/ha ([8]; Setaria faberi, pre-emergence, 16 g ai/ha, scale 0 to 100 (0 no effect, 100 complete control), read-out: Plant response rating, Foxtail, Giant): 98%
- pest or weed control at 31 g/ha ([8]; Setaria faberi, pre-emergence, 31 g ai/ha, 0 to 100 scale, 0 no effect, 100 complete control, read-out: Plant response rating, Foxtail, Giant): 100%
- pest or weed control at 62 g/ha ([8]; Setaria faberi, pre-emergence, 62 g ai/ha, scale 0 to 100, read-out: Plant response rating, Foxtail, Giant): 100%
- plant injury at 16 g/ha ([9]; Glycine max, pre-emergence, 16 g ai/ha, scale 0 to 100 (0 no effect, 100 complete control), read-out: Plant response rating, Soybean): 0%
- plant injury at 31 g/ha ([9]; Glycine max, pre-emergence, 31 g ai/ha, 0 to 100 scale, 0 no effect, 100 complete control, read-out: Plant response rating, Soybean): 0%
- plant injury at 62 g/ha ([9]; Glycine max, pre-emergence, 62 g ai/ha, scale 0 to 100, read-out: Plant response rating, Soybean): 0%
- Soybean plant response rating ([9]; 8 g ai/ha, scale 0 to 100): 0
- pest or weed control at 16 g/ha ([10]; Galium aparine, pre-emergence, 16 g ai/ha, scale 0 to 100 (0 no effect, 100 complete control), read-out: Plant response rating, Galium): 0%
- pest or weed control at 31 g/ha ([10]; Galium aparine, pre-emergence, 31 g ai/ha, 0 to 100 scale, 0 no effect, 100 complete control, read-out: Plant response rating, Galium): 0%
- pest or weed control at 62 g/ha ([10]; Galium aparine, pre-emergence, 62 g ai/ha, scale 0 to 100, read-out: Plant response rating, Galium): 0%
- Galium plant response rating ([10]; 8 g ai/ha, scale 0 to 100): 0
- pest or weed control at 16 g/ha ([11]; Eleusine indica, pre-emergence, 16 g ai/ha, scale 0 to 100 (0 no effect, 100 complete control), read-out: Plant response rating, Goosegrass): 80%
- pest or weed control at 31 g/ha ([11]; Eleusine indica, pre-emergence, 31 g ai/ha, 0 to 100 scale, 0 no effect, 100 complete control, read-out: Plant response rating, Goosegrass): 100%
- pest or weed control at 62 g/ha ([11]; Eleusine indica, pre-emergence, 62 g ai/ha, scale 0 to 100, read-out: Plant response rating, Goosegrass): 100%
- Goosegrass plant response rating ([11]; 8 g ai/ha, scale 0 to 100): 80
- pest or weed control at 16 g/ha ([12]; Amaranthus retroflexus, pre-emergence, 16 g ai/ha, scale 0 to 100 (0 no effect, 100 complete control), read-out: Plant response rating, Pigweed): 0%
- pest or weed control at 31 g/ha ([12]; Amaranthus retroflexus, pre-emergence, 31 g ai/ha, 0 to 100 scale, 0 no effect, 100 complete control, read-out: Plant response rating, Pigweed): 0%
- pest or weed control at 62 g/ha ([12]; Amaranthus retroflexus, pre-emergence, 62 g ai/ha, scale 0 to 100, read-out: Plant response rating, Pigweed): 0%
- Pigweed plant response rating ([12]; 8 g ai/ha, scale 0 to 100): 0
- pest or weed control at 16 g/ha ([13]; Ambrosia, pre-emergence, 16 g ai/ha, scale 0 to 100 (0 no effect, 100 complete control), read-out: Plant response rating, Ragweed): 0%
- pest or weed control at 31 g/ha ([13]; Ambrosia, pre-emergence, 31 g ai/ha, 0 to 100 scale, 0 no effect, 100 complete control, read-out: Plant response rating, Ragweed): 0%
- pest or weed control at 62 g/ha ([13]; Ambrosia, pre-emergence, 62 g ai/ha, scale 0 to 100, read-out: Plant response rating, Ragweed): 0%
- Ragweed plant response rating ([13]; 8 g ai/ha, scale 0 to 100): 0
- pest or weed control at 16 g/ha ([14]; Lolium multiflorum, pre-emergence, 16 g ai/ha, scale 0 to 100 (0 no effect, 100 complete control), read-out: Plant response rating, Ryegrass, Italian): 10%
- pest or weed control at 31 g/ha ([14]; Lolium multiflorum, pre-emergence, 31 g ai/ha, 0 to 100 scale, 0 no effect, 100 complete control, read-out: Plant response rating, Ryegrass, Italian): 50%
- pest or weed control at 62 g/ha ([14]; Lolium multiflorum, pre-emergence, 62 g ai/ha, scale 0 to 100, read-out: Plant response rating, Ryegrass, Italian): 100%
- Ryegrass, Italian plant response rating ([14]; 8 g ai/ha, scale 0 to 100): 0
